Experimental data as given in US12410147B2, “Surfactants” (Imperial College Innovations Limited, priority 2020, dated 2025).

Tests used:
zein protein = assay: Zein solubilisation study; conditions: 2 g zein, 40 ml of 0.5 wt % surfactant solution, 40° C., 12 h
Procedure: The applicability of surfactants in personal care products was studied by analysing their capacity to solubilise zein protein. In each test 2 g of zein protein was mixed with 40 ml of 0.5 wt % surfactant solution and the mixture was incubated at 40° C. for 12 h. The mixture was then centrifuged and the remaining solid zein was washed with 50 mL of water 5 times. The solid zein was dried for in an oven at 70° C. for 5 days and weighted. The zein solubilisation was evaluated as percentage of zein that was dissolved into the surfactant solution.

[1] = Solubility study in water (ISO standard 6839); assay type: physicochemical; conditions: for solubility in water (concentration solubilized): room temperature
Procedure: 10 ml of solution was poured into a 20 ml vial and allowed to cool until precipitation was observed. Other 10 ml of solution was poured into a 20 ml vial and kept at a higher temperature. The precipitated sample was slowly heated and the clear sample was slowly cooled. The temperature at which an appearance change occurred was considered the temperature of solubility at a specific surfactant concentration.

[2] = Critical micelle concentration, air-water-surfactant system, pendant drop method; assay type: physicochemical; conditions: 25° C., deionised water
Procedure: Concentrations that were evaluated for each surfactant varied depending on the solubility of the surfactant and the surface tension reduction observed during the analysis. The experiment was performed at 25° C. Deionised water (prepared using a Milli-Q system (Merck)) was used for each experiment. The pendant drop method was used to calculate the surface tension by using a Krüss DSA25. A drop of the solution was produced in the tip of a blunt metal needle (1.25 mm) until the drop reached its maximum size. After 10-15 seconds of equilibration, an image of the drop was captured using a digital camera. The drop was analyzed using the software Krüss EasyDrop Standard-Drop Shape Analysis (DSA1) v 1.92. The software uses the Young-Laplace equation to calculate the surface tension according to the drop deformation considering the effect of gravity and hydrostatic pressure. Critical micellar concentration (CMC) was obtained after plotting surface tension vs surfactant concentration. The CMC is calculated as the surfactant concentration where the initial straight line intersects the plateau in the graph.

[3] = system: E. coli in expressing the b-galactosidase; assay type: cell-based; conditions: 37° C., 30 min, OD 600 nm
Procedure: The toxicity of different surfactants was analysed using a Toxi-Chromo test kit supplied by EBPI to quantify the inhibition of E. coli in expressing the b-galactosidase in the presence of the surfactants. Using the standard protocol, a mother solution containing 1000 ppm of a surfactant was prepared. The bacteria inoculum was mixed with a reaction mixture, nutrients supplied with the kit and the toxicant. A further 15 samples at containing different amounts of the surfactant were prepared in the well plate through subsequent dilutions. The chromogen supplied with the kit was added in each well and the well plate was then incubated at 37° C. for 30 min. The optical density (OD) was read at 600 nm using a plate reader. The % inhibition was measured by the OD variation (which is associated a blue colour development). EC50 was measured by plotting and fitting the % inhibition and surfactant concentration.

protozoa microorganisms = assay type: cell-based; conditions: 30° C., 24 h, OD 440 nm
Procedure: The toxicity of different surfactants was analysed using a Protoxkit supplied by microbiotests quantify the inhibition of growth of protozoa microorganisms in the presence of the surfactants. Using the standard protocol, a dilution series of toxicant was prepared by serial 1:1 dilution with distilled water. 2 mL of each solution is placed in a UV cuvette. An inoculum of Protozoa was diluted to reach an OD of 0.04 at 440 nm then 40 μL of inoculum was added along a solution of 40 μL of nutrients in each dilution vials. The initial OD was measured for each vial and the vial was then incubated at 30° C. for 24 h. Inhibition was measured by the comparing the variation of initial and final OD.

[4] = Foaming capacity (ISO 6964 with modifications); assay type: physicochemical; conditions: 0.2% surfactant, 50° C., after 5 minutes; for Foam height, hard water: 200 ppm CaCl2
Procedure: Foaming capacity was evaluated following the protocol set out in ISO 6964, with some modifications. In each test, 700 mL of surfactant solution containing 0.2% surfactant was prepared using deionized water or a hard water solution of distilled water with 200 ppm of CaCl2. The solutions were prepared by agitating the components for 60 minutes at 50° C. After 60 minutes, 50 mL of solution was poured in a 1000 mL glass measuring cylinder, which was then placed in a water bath that was heated to 50° C. 600 mL of the surfactant solution was poured into a chromatography column fitted with a stainless-steel needle at the egress. The column was placed over the measuring cylinder so that the tip of the needle was […] from the surfactant solution in the measuring cylinder. 450 mL of surfactant solution were poured from the column into the measuring cylinder. After pouring the solution, foam height was measured at 30 sec, 3 min, 5 min and 15 min.

[5] = Surface tension in octanol-water-surfactant system, drop volume method (ISO 9101 modified); assay type: physicochemical
Source text: The drop volume method was used to calculate the surface tension in the system following the ISO standard 9101 with some modifications. In each experiment a drop of aqueous solution of surfactant was slowly formed in the tip of a needle (d=1.82 mm) submerged in octanol using a syringe connected at a Krüss DSA25 drop shape analyser instrument. The drop formation was allowed to grow as close as possible the maximum volume at which it would detach from the needle. At this point, the drop was left to stabilize for 2 minutes and then was detached from the needle by providing a small amount of additional solution. A photo of the drop leaving the needle was captured using the camera connected to the Krüss DSA25. The diameter of the drop was measured, and the surface tension was calculated using the following equation: […]
Where γ is the surface tension (mN/m), V is the drop volume (cm^3), Δρ is the difference of density between water and octanol (g/cm^3), g is the acceleration due to gravity (cm/s^2), d is the outer diameter of the needle (cm), and f is a correction factor calculated using the following equation: […]
Surface tension at concentration 2 times the CMC in deionised water (prepared using a Milli-Q system (Merck)) are summarized in Table 6. […] In FIG. 2 the drops formation of a water/surfactant solution in octanol have been reported for the SAF-8, SAF-12 and SDBS at a concentration of surfactant double of the CMC. The SAF-8 show the lower surface tension due mostly to the high concentration of surfactant used ([…]).
SAF-8 was evaluated using a concentration 2 times the CMC, while SAF-12 was evaluated at 2, 4 and 8 times the CMC.

[6] = Resistance to hard water (ISO standard 1063); assay type: physicochemical; conditions: for appearance of the solutions in hard water stability tests (in words): all calcium concentrations; for Mean Stability: class from total score according to Table 3; for Total Score: sum of 15 appearance scores, CaCl2 6, 9 and 12 m equivalent Ca/L, five aliquots of 50 mg/ml mother solution
Procedure: These measurements were made according the standard protocol reported in ISO standard 1063. Calcium chloride was used as cation source at concentrations of 6, 9 and 12 m equivalent Ca/L (3.0, 4.5, 6.0 mM). A mother solution of surfactant with 50 mg/ml concentration was prepared in water at 20° C. In a 50 ml falcon-tube, a defined aliquot of mother solution was transferred and diluted up to 50 ml with the calcium solution. Five different aliquots of surfactant mother solution were tested: 5.0, 2.5, 1.2, 0.6 and 0.3 ml. In every test, the appearance of the sample was inspected and assigned a score according to Table 2. The scores of the 15 tests for each surfactant were summed and the final result was expressed as mean stability according to Table 3.
• Opalescent is a solution not clear but which objects can be seen. Cloudy is a solution not clear which objects cannot be seen through.

[7] = surfactant concentration 12.5 % weight in water
[8] = surfactant concentration 15 % weight in water
[9] = surfactant concentration 17.5 % weight in water
[10] = surfactant concentration 20 % weight in water
[11] = surfactant concentration 22.5 % weight in water
[12] = deionised water in octanol, concentration 2 times the CMC
[13] = hard water (500 ppm CaCl2) in octanol, 2 times the CMC

Question: What does the source list for `CCCCCCCCCCCCOC(=O)c1ccc(S(=O)(=O)O)o1` [SAF-12, Sulfonated Dodecyl Furoate]?
Answer: % of zein dissolved (zein protein): 15.3 ± 0.26%; temperature below which the surfactant would precipitate ([1]; 20% solution): below 20 °C; solubility in water (concentration soluble) ([1]; 24° C.): 20%; temperature at which dissolution was observed [1, 7]: 20-25 °C; temperature at which dissolution was observed [1, 8]: 20-25 °C; temperature at which dissolution was observed [1, 9]: 20-25 °C; temperature at which dissolution was observed [1, 10]: 20-25 °C; temperature at which dissolution was observed [1, 11]: <0 °C; CMC [2]: 521 ppm; EC50, inhibition of E. coli in expressing the b-galactosidase [3]: 63.5 ± 2.8 ppm; EC50, inhibition of growth of protozoa microorganisms (protozoa microorganisms): 49.65 ± 5 ppm; Foam height, hard water [4]: 10.35 ± 0.5 mm; Foam height, distilled water [4]: 7.8 ± 0.4 mm; Surface tension [5, 12]: 3.42 mN/m; Surface tension [5, 13]: 4.51 ± 0.5 mN/m; Surface tension ([5]; hard water (500 ppm CaCl2) in octanol, 4 times the CMC): 3.78 ± 0.45 mN/m; Surface tension ([5]; hard water (500 ppm CaCl2) in octanol, 8 times the CMC): 1.99 ± 0.27 mN/m; appearance of the solutions in hard water stability tests (in words) [6]: remained clear; Mean Stability [6]: 5 (75); Total Score [6]: 75

Question: For `CCCCCCCCCCCCOS(=O)(=O)[O-].[Na+]` [SDS, sodium dodecyl sulfate, reference compound], which “EC50, inhibition of E. coli in expressing the b-galactosidase” value [3] is on record?
Answer: 123.7 ± 5.2 ppm

Question: What about the “EC50, inhibition of growth of protozoa microorganisms” value (protozoa microorganisms) of the same compound?
Answer: 85.71 ± 3.8 ppm

Question: And the “Foam height, hard water” value [4]?
Answer: 4.25 ± 0.4 mm

Question: And the “Foam height, distilled water” value [4]?
Answer: 7.25 ± 0.4 mm

Question: And the Surface tension [5, 12]?
Answer: 1.34 ± 0.28 mN/m

Question: And the “behaviour in hard water (in words)” value ([5]; hard water (500 ppm CaCl2))?
Answer: significant agglomeration

Question: What about the “appearance of the solutions in hard water stability tests (in words)” value [6] of the same compound?
Answer: extensive precipitation in many tests

Question: And the “Mean Stability” value [6]?
Answer: 2 (19-37)

Question: What about the “Total Score” value [6] of the same compound?
Answer: 21

Question: Which results are given for `CCCCCCCCCCCCCCCCOC(=O)c1ccc(S(=O)(=O)O)o1` [SAF-16, Sulfonated Hexadecyl Furoate]?
Answer: solubility in water (in words) ([1]; comparison of surfactants): very low solubility; solubility in water (concentration solubilized) [1]: 0.05%; temperature at which dissolution was observed [1, 7]: >50 °C; temperature at which dissolution was observed [1, 8]: >50 °C; temperature at which dissolution was observed [1, 9]: >50 °C; temperature at which dissolution was observed [1, 10]: >50 °C; temperature at which dissolution was observed [1, 11]: >50 °C; CMC [2]: 60 ppm

Question: For `CCCCCCCCOC(=O)c1ccc(S(=O)(=O)O)o1` [SAF-8, Sulfonated Octyl Furoate], which “% of zein dissolved” value (zein protein) is on record?
Answer: 10.4 ± 0.98%

Question: What about the “solubility in water (concentration solubilized)” value [1] of the same compound?
Answer: up to 140%

Question: What about the “temperature at which dissolution was observed” value [1, 7] of the same compound?
Answer: <0 °C

Question: And the “temperature at which dissolution was observed” value [1, 8]?
Answer: <0 °C

Question: What about the “temperature at which dissolution was observed” value [1, 9] of the same compound?
Answer: <0 °C

Question: What about the “temperature at which dissolution was observed” value [1, 10] of the same compound?
Answer: <0 °C

Question: What about the “temperature at which dissolution was observed” value [1, 11] of the same compound?
Answer: <0 °C

Question: What about the CMC [2] of the same compound?
Answer: 1330 ppm

Question: And the “EC50, inhibition of E. coli in expressing the b-galactosidase” value [3]?
Answer: 292 ± 13 ppm

Question: And the “EC50, inhibition of growth of protozoa microorganisms” value (protozoa microorganisms)?
Answer: 673 ± 10 ppm

Question: And the “Foam height, hard water” value [4]?
Answer: 5 ± 0.5 mm

Question: What about the “Foam height, distilled water” value [4] of the same compound?
Answer: 2.5 ± 0.7 mm

Question: And the Surface tension [5, 12]?
Answer: 2.65 mN/m

Question: What about the Surface tension [5, 13] of the same compound?
Answer: 1.91 ± 0.25 mN/m

Question: What about the “appearance of the solutions in hard water stability tests (in words)” value [6] of the same compound?
Answer: remained clear

Question: And the “Mean Stability” value [6]?
Answer: 5 (75)

Question: What about the “Total Score” value [6] of the same compound?
Answer: 75
